From ChEMBL document CHEMBL1201862, “PubChem BioAssay data set” (2004)
The source made the active and inactive calls.

Legend:
[1] = target: T1, High affinity choline transporter 1 (Homo sapiens, UniProt Q9GZV3); experiment: human choline transporter blockers, potency – cell-based, 5-point CRC, membrane potential dye, dose response (AID 504840); assay type: functional
T1 sequence (Q9GZV3 whole entry): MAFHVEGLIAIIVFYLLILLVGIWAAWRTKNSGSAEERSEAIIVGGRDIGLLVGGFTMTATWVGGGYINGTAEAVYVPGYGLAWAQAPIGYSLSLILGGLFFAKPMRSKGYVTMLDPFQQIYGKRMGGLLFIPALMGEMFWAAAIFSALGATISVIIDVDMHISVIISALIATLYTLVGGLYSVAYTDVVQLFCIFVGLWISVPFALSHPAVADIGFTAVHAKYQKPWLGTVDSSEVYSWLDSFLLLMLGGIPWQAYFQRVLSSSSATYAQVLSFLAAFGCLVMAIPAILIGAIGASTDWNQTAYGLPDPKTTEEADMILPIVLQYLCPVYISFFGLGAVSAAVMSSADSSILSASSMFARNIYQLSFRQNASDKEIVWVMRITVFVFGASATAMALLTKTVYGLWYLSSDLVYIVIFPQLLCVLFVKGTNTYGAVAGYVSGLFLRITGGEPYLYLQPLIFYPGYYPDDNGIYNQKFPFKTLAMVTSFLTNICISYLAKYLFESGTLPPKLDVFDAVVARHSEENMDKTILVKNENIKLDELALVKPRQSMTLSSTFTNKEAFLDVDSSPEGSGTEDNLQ

[2] = target: T1, High affinity choline transporter 1; experiment: human choline transporter blockers, potency – cell-based, 10-point CRC, membrane potential dye, dose response (AID 588401); assay type: functional;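 also: membrane potential dye fluorescence of choline-evoked depolarization via CHT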
[3] = Luminescence Cell-Based Dose Confirmation HTS to Identify Activators of 5'UTR Stem-Loop Driven Alpha-Synuclein mRNA Translation in H4 Neuroglioblastoma Cells. [Related pubchem assays: 1829 (Project Summary), 1814 (Primary HTS)]; assay type: functional
[4] = Luminescence Cell-Based Dose Response HTS to Identify Activators of Luciferase Translation or Activity in H4 […] Cells. [Related pubchem assays: 1829 (Project Summary), 1814 (Primary HTS)]; assay type: functional
[5] = tested on: H4; experiment: Luminescence Cell-Based Dose Response HTS to Identify Activators of 5'UTR Stem-Loop Driven Prion Protein mRNA Translation in H4 Neuroglioblastoma Cells. [Related pubchem assays: 1829 (Project Summary), 1814 (Primary HTS)]; assay type: functional; conditions: Homo sapiens
[6] = target: T2, Sentrin-specific protease 8 (Homo sapiens, UniProt Q96LD8); experiment: inhibition of human SENP8 cleavage activity – biochemical, luminescence, SAR follow-up (AID 504501); assay type: functional
T2 sequence (Q96LD8 whole entry): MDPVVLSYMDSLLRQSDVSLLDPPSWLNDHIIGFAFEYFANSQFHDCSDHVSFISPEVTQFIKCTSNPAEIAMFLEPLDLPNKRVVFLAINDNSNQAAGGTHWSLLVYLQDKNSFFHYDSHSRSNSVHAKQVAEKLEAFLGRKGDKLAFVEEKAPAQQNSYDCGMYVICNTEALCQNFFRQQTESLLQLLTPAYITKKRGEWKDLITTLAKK

[7] = target: T3, Caspase-3 (Homo sapiens, UniProt P42574); experiment: SAR Analysis of small molecule inhibitors of Sentrin-specific proteases (SENPs) using a Caspase-3 Selectivity assay. [Related pubchem assays (depositor defined):AID2540, AID2599, AID434973, AID489001]; assay type: functional
T3 sequence (P42574 whole entry): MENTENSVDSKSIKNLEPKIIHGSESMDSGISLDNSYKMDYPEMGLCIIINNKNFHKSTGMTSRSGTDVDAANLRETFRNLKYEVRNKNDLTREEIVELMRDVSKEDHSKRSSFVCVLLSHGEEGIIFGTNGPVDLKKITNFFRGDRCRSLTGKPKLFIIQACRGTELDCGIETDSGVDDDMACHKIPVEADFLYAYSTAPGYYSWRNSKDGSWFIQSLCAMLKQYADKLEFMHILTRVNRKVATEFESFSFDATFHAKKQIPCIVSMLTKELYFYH

[8] = target: T4, Sentrin-specific protease 6 (Homo sapiens, UniProt Q9GZR1); experiment: SAR Analysis of small molecule inhibitors of Sentrin-specific protease 6 (SENP6) using a Luminescent assay. [Related pubchem assays (depositor defined):AID2582, AID2599]; assay type: functional
T4 sequence (Q9GZR1 whole entry): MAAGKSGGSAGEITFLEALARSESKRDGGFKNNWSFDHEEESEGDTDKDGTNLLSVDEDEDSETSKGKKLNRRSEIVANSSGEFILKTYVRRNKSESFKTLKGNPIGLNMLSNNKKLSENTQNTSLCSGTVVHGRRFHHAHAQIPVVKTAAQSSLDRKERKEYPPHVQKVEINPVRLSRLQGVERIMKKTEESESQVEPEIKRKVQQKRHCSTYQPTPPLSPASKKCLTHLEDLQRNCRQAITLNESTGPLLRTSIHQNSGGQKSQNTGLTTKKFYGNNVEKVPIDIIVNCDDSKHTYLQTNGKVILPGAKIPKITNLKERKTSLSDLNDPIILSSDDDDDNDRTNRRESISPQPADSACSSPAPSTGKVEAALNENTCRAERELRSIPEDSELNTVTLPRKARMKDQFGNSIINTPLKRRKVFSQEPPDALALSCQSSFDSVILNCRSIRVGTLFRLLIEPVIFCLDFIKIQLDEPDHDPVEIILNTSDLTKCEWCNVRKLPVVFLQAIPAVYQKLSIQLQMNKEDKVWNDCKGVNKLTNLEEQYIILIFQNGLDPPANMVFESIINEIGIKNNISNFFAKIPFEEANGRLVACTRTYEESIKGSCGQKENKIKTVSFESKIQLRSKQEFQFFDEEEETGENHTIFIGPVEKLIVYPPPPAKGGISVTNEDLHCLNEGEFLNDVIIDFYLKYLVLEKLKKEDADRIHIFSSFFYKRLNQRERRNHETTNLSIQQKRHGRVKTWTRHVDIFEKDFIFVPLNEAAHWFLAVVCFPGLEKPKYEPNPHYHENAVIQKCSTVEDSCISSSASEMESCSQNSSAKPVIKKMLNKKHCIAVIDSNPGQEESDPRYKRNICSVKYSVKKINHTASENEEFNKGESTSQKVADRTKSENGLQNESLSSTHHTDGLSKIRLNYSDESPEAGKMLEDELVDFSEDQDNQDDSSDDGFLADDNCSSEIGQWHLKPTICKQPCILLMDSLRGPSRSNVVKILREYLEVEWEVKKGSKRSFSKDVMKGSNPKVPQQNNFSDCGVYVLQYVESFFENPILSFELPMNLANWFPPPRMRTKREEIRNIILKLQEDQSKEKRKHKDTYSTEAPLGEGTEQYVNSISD

[9] = target: Ras and Rab interactor 1/Tyrosine-protein kinase ABL1 (Homo sapiens, UniProt P00519+Q13671); assay type: functional;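 also: biochemical TR-FRET dose-response test measuring inhibition of binding between Rin1 and Abl proteins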
Chain of Ras and Rab interactor 1/Tyrosine-protein kinase ABL1 (P00519 whole entry): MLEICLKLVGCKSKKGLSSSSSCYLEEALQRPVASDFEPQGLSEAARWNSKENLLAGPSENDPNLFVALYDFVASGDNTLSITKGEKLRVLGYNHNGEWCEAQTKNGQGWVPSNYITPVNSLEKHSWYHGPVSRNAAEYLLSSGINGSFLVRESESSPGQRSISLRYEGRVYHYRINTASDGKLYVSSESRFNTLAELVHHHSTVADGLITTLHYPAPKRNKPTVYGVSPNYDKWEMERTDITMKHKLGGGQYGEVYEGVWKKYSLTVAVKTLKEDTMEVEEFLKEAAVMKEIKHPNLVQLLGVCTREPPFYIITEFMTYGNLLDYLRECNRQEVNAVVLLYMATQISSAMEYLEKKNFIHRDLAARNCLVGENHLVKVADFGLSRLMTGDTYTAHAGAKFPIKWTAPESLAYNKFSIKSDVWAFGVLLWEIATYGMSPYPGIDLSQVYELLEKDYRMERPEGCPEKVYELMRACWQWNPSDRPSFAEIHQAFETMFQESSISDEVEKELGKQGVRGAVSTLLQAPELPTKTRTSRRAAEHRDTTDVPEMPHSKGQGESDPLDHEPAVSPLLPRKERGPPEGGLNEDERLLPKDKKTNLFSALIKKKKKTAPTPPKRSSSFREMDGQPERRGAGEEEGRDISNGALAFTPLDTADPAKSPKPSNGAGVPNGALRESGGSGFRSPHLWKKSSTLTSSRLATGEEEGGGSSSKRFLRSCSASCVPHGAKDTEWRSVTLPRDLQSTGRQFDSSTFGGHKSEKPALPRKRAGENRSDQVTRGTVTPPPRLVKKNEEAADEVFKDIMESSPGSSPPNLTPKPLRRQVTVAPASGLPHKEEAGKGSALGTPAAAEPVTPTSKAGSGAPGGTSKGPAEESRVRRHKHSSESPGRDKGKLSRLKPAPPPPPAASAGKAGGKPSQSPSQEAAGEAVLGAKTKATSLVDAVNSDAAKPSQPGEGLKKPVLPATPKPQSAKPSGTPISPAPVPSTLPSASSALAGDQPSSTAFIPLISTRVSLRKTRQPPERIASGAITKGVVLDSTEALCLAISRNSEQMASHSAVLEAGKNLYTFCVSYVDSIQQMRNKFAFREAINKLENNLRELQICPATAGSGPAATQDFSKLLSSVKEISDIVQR
Chain of Ras and Rab interactor 1/Tyrosine-protein kinase ABL1 (Q13671 whole entry): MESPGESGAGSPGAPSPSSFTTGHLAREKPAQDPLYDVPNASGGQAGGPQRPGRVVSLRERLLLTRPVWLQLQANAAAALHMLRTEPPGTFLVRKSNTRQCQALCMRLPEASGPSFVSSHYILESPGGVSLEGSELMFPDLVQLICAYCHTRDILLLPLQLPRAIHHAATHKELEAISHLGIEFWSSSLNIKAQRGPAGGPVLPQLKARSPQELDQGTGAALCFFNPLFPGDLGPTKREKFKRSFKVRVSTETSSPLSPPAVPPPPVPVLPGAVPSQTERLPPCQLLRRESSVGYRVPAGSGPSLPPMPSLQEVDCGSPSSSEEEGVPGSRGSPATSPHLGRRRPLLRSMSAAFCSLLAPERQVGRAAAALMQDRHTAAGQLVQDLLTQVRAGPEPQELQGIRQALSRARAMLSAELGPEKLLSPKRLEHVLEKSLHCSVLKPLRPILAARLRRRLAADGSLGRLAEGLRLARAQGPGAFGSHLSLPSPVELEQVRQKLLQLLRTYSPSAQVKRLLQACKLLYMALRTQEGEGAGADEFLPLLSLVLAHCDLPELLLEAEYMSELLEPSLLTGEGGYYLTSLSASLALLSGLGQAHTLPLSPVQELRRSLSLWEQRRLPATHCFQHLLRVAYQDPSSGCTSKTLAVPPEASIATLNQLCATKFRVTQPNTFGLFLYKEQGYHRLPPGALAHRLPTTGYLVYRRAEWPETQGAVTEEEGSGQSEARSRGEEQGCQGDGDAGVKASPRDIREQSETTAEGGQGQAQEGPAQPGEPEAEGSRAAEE

[10] = target: T5, DNA repair and recombination protein RAD54-like (Homo sapiens, UniProt Q92698); experiment: RAD54 Holliday junction migration blockers – biochemical, fluorescence, cherry-picked samples, dose series, confirmation (AID 651657); assay type: functional
T5 sequence (Q92698 whole entry): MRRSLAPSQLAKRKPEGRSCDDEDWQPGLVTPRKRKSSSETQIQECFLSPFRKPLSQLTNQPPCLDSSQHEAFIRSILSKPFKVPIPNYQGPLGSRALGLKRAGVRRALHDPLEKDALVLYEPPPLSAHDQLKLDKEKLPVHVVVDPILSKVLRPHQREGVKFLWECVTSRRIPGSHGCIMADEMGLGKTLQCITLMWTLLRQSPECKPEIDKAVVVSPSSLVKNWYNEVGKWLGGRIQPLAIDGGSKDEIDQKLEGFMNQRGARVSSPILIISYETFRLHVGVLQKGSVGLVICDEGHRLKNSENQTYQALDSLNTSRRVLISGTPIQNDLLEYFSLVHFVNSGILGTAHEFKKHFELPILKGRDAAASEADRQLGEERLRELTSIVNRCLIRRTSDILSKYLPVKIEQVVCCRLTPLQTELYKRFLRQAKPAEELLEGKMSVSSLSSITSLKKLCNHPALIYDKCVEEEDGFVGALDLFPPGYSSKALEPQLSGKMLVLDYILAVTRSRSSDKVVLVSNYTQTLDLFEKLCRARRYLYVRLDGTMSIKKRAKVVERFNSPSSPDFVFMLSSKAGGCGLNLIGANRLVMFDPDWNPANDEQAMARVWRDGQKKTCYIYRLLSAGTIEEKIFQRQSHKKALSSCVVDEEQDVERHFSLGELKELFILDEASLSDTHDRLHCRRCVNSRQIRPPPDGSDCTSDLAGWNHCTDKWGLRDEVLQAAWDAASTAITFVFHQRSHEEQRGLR

[11] = target: T6, DNA repair protein RAD52 homolog (Homo sapiens, UniProt P43351); assay type: functional, biochemical
T6 sequence (P43351 whole entry): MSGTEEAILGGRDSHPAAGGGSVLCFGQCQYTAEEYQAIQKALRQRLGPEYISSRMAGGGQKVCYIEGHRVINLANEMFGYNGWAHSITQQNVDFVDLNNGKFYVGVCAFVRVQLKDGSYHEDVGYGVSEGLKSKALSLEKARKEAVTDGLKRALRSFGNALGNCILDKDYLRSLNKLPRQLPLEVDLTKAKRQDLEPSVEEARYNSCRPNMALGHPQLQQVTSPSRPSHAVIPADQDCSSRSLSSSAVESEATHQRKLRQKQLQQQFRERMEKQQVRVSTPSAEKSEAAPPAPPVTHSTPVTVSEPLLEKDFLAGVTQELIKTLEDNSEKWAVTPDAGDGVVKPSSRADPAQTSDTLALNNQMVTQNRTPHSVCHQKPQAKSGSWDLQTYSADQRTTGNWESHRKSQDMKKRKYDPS

[12] = reduction of Shn3 3'UTR-driven luciferase in osteoblasts – cell-based, Clone20 osteoblasts, firefly luciferase, cherry-picked, dose response (AID 624132); assay type: functional;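 also: firefly luciferase luminescence from reporter carrying the Shn3 3'UTR in osteoblasts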
[13] = loss of viability in HepG2 cells – cell-based, CellTiter-Glo, cherry-picked, cytotoxicity control for Shn3 inhibitor project, dose response (AID 624134); assay type: functional
[14] = non-specific 3'UTR reporter inhibition in Clone20-Shn3RL – cell-based, Renilla luciferase, cherry-picked, counter-screen for Shn3 inhibitor project, dose response (AID 624133); assay type: functional
[15] = target: Protein Wnt-3a (Mus musculus, UniProt P27467); experiment: antagonism of Wnt3a pathway luciferase reporter – Wnt-LIGHT cells, luminescence, selectivity assay for Gli-SUFU antagonist project, dose response (AID 651570); assay type: functional; conditions: read-out: IC50_Mean;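 also: Wnt-LIGHT reporter cells stimulated with conditioned medium from Wnt3a-producing cells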
Chain of Protein Wnt-3a (P27467 whole entry): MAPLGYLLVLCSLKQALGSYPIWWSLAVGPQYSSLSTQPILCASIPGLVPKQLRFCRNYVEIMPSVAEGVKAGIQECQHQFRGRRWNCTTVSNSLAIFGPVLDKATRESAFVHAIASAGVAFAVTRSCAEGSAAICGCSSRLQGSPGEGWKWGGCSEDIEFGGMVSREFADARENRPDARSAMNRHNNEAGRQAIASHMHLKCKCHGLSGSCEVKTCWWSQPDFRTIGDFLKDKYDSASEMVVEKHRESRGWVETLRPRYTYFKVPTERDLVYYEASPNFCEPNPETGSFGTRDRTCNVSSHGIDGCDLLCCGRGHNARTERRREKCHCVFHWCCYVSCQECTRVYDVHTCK

[16] = target: T7, Short transient receptor potential channel 4 (Mus musculus, UniProt Q9QUQ5); experiment: block of DAMGO-driven TRPC4 calcium entry – cell-based, HEK293 TRPC4/mu-opioid, Fluo-4 calcium, dose response (AID 434942); assay type: functional;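 also: potency of inhibitors blocking the TRPC4 calcium response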
T7 sequence (Q9QUQ5 whole entry): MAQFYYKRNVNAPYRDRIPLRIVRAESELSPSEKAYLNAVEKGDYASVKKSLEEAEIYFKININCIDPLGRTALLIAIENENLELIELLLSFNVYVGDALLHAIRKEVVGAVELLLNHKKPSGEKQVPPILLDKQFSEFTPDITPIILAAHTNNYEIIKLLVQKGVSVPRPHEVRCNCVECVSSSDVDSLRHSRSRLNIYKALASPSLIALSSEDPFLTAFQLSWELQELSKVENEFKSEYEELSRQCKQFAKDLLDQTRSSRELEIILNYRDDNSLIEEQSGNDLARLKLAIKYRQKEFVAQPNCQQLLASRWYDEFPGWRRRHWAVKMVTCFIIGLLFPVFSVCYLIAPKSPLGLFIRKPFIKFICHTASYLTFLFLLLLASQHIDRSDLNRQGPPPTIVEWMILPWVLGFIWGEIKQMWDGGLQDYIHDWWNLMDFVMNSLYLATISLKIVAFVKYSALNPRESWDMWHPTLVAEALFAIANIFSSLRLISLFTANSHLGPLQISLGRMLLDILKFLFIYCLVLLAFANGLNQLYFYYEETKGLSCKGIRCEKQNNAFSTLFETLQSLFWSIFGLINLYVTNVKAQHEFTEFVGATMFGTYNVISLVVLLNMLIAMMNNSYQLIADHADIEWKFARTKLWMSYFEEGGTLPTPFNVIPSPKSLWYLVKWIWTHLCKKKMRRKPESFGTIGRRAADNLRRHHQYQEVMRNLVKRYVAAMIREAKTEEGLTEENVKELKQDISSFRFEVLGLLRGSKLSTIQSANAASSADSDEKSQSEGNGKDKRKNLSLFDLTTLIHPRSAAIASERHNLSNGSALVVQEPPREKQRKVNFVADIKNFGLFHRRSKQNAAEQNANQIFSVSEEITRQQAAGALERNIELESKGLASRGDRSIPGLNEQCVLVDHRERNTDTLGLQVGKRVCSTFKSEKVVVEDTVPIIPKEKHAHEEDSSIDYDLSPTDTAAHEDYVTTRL

Compound: COc1ccc(N(C)S(=O)(=O)c2cccc(C(=O)NC3CCCCC3C)c2)cc1 (centres undefined)
- IC50 [1]: 4.79 µM (active)
- IC50 [2]: 7.08 µM (active)

Compound: CC(NC(=O)NC1CCCCC1)c1ccc2c(c1)OCO2 (centres undefined)
- IC50 [1]: 3.47 µM (active)
- IC50 [2]: 2.57 µM (active)

Compound: CC(=O)Nc1ccc(/C=C/c2n[nH]c(-c3ccccc3O)n2)cc1
- EC50 [3]: 2.79 µM (active)
- EC50 [4]: 13.6 µM (active)
- EC50 [5]: 1.33 µM (active)
- IC50 [6]: > 99 µM (inactive)
- IC50 [7]: 30 µM (active)
- IC50 [8]: > 99 µM (inactive)

Compound: CCCc1ncc(CN2CCC(C(=O)Nc3cccc(-c4cscn4)c3)CC2)cn1
- IC50 [9]: 22.3 µM (inactive)

Compound: CCCN1CCN(CCCN=C(S)Nc2ccc3nc(N4CCN(CC)CC4)cc(C)c3c2)CC1
- IC50 [1]: 2.3 µM (active)
- IC50 [2]: 2.67 µM (active)
- AC50 [10]: 25.8 µM (active)
- AC50 [11]: 1.71 µM (active)

Compound: Cc1cc(C)nc(SCC(=O)Nc2ccc(N3CCOCC3)c(Cl)c2)n1
- AC50 [12]: 1.66 µM (active)
- AC50 [13]: > 70 µM (inactive)
- AC50 [14]: 3.13 µM (active)
- IC50 [15]: 5.24 µM (active)

Compound: Cc1c(C(=O)NCC(c2ccco2)N(C)C)oc2c(Cl)cccc12 (centres undefined)
- EC50 [16]: 0.267 µM (active)
- IC50 [9]: 5.07 µM (active)

Compound: O=C(Cn1cc(C(=O)C2CC2)c2ccccc21)Nc1ccccc1Cl
- AC50 [12]: 3.42 µM (active)
- AC50 [14]: 4.12 µM (active)
- IC50 [15]: 5.2 µM (active)
